From PMC5078989, “Targeted inhibition of the COP9 signalosome for treatment of cancer” (Nature Communications, 2016)

Tested on: panel of cancer cell lines
Test: Cell viability (CellTiter-Glo) dose-response across cancer cell line panel;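 for EC50: after 72 h compound incubation with CellTiter-Glo ATP readout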
Format: cell-based, human
Conditions: for EC50: Homo sapiens
Excerpt: Next, we explored the effect of CSN5 inhibition on the viability of cancer cells. To obtain a comprehensive picture, we generated dose–response curves with a CSN5 inhibitor across more than 500 cancer cell lines in a previously described standardized setting[47] (Supplementary Data 1).
A standardized CellTiter-Glo Assay (Promega #G7570) based on the quantification of ATP was applied according to the manufacturer's protocol to measure the amount of viable cells in culture. In brief, cells were seeded into 384-well plates at optimal density for each cell line. After 4 h, compounds were added at different concentrations in growth medium and incubated for another 72 h in a humidifying chamber at 37 °C and 5% CO2. […] EC50 values were calculated from the plot of percentage of inhibition versus inhibitor concentration using the nonlinear regression analysis software Origin 7.5SR6 (OriginLab Corp.).

NS(=O)(=O)OC[C@@H]1C[C@@H](n2ccc3c(N[C@H]4CCc5ccccc54)ncnc32)C[C@@H]1O [MLN4924]
EC50 (SNU-685): 720 nM | EC50 (SNU-738): 410 nM | EC50 (SNU-761): 874 nM | EC50 (SNU-886, SNU-886): 42.5 nM | EC50 (SNU-1040): 159 nM | EC50 (SNU-1079): 386 nM | EC50 (SNU-C1, SNU-C1): 1630 nM | EC50 (SNU-C2A): 6400 nM | EC50 (SNU-C4, SNU-C4): 1110 nM | EC50 (SNU-C5): 589 nM | EC50 (SR-786, SR-786): 861 nM | EC50 (SU-DHL10, SU-DHL-10): 204 nM | EC50 (SU-DHL-4, SU-DHL-4): 76.1 nM | EC50 (SU-DHL-5, SU-DHL-5): 101 nM | EC50 (SU-DHL-6, SU-DHL-6): 248 nM | EC50 (SU-DHL-8, SU-DHL-8): 155 nM | EC50 (SU.86.86, SU.86.86): 777 nM | EC50 (SUIT-2, SUIT-2): 184 nM | EC50 (SUM52PE): 109 nM | EC50 (SUM149PT): 611 nM | EC50 (SUM185PE): 63.7 nM | EC50 (SUM190PT): 98.9 nM | EC50 (SUM-159-PT, SUM159PT): 6930 nM | EC50 (SUP-T1, SUP-T1): 154 nM | EC50 (SW48, SW48): 145 nM | EC50 (SW480, SW480): 399 nM | EC50 (SW900, SW 900): 1520 nM | EC50 (SW982, SW982): 805 nM | EC50 (SW1088, SW 1088): > 30000 nM | EC50 (SW1271, SW 1271): 523 nM | EC50 (SW1353, SW 1353): 2900 nM | EC50 (SW1573, SW 1573): 224 nM | EC50 (SW1783, SW 1783): > 30000 nM | EC50 (SW-403, SW403): 803 nM | EC50 (SW-620, SW620): 1500 nM | EC50 (SYO-1): 281 nM | EC50 (Sq-1): 164 nM | EC50 (T3M4, T3M-4): 459 nM | EC50 (T47D, T-47D): 315 nM | EC50 (TALL-1, TALL-1): 446 nM | EC50 (TANOUE): 57.9 nM | EC50 (TC-71, TC-71): 159 nM | EC50 (TCC-PAN2): 1300 nM | EC50 (TE-1, TE-1): 1700 nM | EC50 (TE-6, TE-6): 422 nM | EC50 (TE-11, TE-11): 247 nM | EC50 (TE-14): 339 nM | EC50 (TF-1, TF-1): 1710 nM | EC50 (THP-1, THP-1): 175 nM | EC50 (TT2609-C02): 334 nM | EC50 (TYK-nu): 156 nM | EC50 (U266B1): 827 nM | EC50 (U-87 MG): 447 nM | EC50 (U-118-MG, U-118 MG): 541 nM | EC50 (U-251, U-251 MG): 1690 nM | EC50 (U-937, U-937): 103 nM | EC50 (UACC-62, UACC-62): 192 nM | EC50 (UACC-257, UACC-257): 650 nM | EC50 (UCH1, UCH-1): 5210 nM | EC50 (UKE1, UKE1): 383 nM | EC50 (VM-CUB-1, VM-CUB1): 829 nM | EC50 (VMRC-LCD): 288 nM | EC50 (VMRC-RCW): 1230 nM | EC50 (WM 266-4, WM-266-4): 465 nM | EC50 (WM983B, WM-983B): 201 nM | EC50 (WM-88): 510 nM | EC50 (WM-115, WM-115): 1410 nM | EC50 (WM-1799, WM1799): 154 nM | EC50 (WSU-WM): 185 nM | EC50 (YAPC): 205 nM | EC50 (ZR-75-1, ZR-75-1): 353 nM | AMAX (Hs 695T): -54.4409 | AMAX (Hs 936.T): -81.1628 | AMAX (HuG1-N): -47.6265 | AMAX (HuH-7): -61.9045 | AMAX (IGR-37): -85.5177 | AMAX (IGROV1): -85.9932 | AMAX (IPC-298): -80.8233 | AMAX (Ishikawa): -91.0654 | AMAX (J82): -49.0789 | AMAX (JHH-4): -91.4007 | AMAX (JHOS-2): -63.2509 | AMAX (JHUEM-2): -75.0485 | AMAX (JHUEM-3): -28.2496 | AMAX (JL-1): -61.5427 | AMAX (JVM-2): -91.7997 | AMAX (KARPAS-422): -93.0088 | AMAX (KATO III): -44.0826 | AMAX (KBM-7): -98.5101 | AMAX (KE-97): -95.9856 | AMAX (KMRC-1): -84.1268 | AMAX (KP4): -71.8264 | AMAX (KP-1N): -53.1172 | AMAX (KP-2): -64.2974 | AMAX (KP-3): -63.0208 | AMAX (KU-19-19): -84.2248 | AMAX (KYSE-150): -87.7498 | AMAX (KYSE-180): -85.8737 | AMAX (Kasumi3): -97.5892 | AMAX (L-363): -96.7272 | AMAX (LC2/ad): -74.576 | AMAX (MM138): -73.7519 | AMAX (MM415): -81.4932 | AMAX (MM426): -75.6165 | AMAX (MM485): -69.3744 | AMAX (MM537): -69.6122 | AMAX (MOLT-16): -97.3083 | AMAX (MeWo): -75.2037 | AMAX (NB-1): -99.4488 | AMAX (NCI-H82): -97.4475 | AMAX (NCI-H146): -90.9498 | AMAX (NCI-H322): -80.9979 | AMAX (NCI-H441): -47.4873 | AMAX (NCI-H647): -73.4893 | AMAX (NCI-H841): -87.0207 | AMAX (NCI-H1373): -83.9593 | AMAX (NCI-H1568): -95.718 | AMAX (NCI-H1755): -73.6315 | AMAX (NCI-H2023): -96.0734 | AMAX (NCI-H2087): -83.0999 | AMAX (NCI-H2110): -89.6657 | AMAX (NCI-H2452): -41.6484 | AMAX (NCI-N87): -74.5636 | AMAX (NO36): -67.5733 | AMAX (OUMS-23): -78.9353 | AMAX (OV56): -95.0768 | AMAX (P3HR-1): -93.355 | AMAX (P12-ICHIKAWA): -96.3019 | AMAX (PA-TU-8988T): -81.7224 | AMAX (PANC-1): -64.2148 | AMAX (PC-3): -79.4027 | AMAX (PE/CA-PJ34 (clone C12)): -79.361 | AMAX (PE/CA-PJ49): -67.4836 | AMAX (PF-382): -98.4673 | AMAX (PL-21): -95.522 | AMAX (Panc 03.27): -88.9221 | AMAX (Panc 04.03): -72.0017 | AMAX (Panc 10.05): -85.7173 | AMAX (RD-ES): -97.5942 | AMAX (RT-112): -90.3953 | AMAX (SEM): -97.7133 | AMAX (SK-ES-1): -95.0336 | AMAX (SK-MEL-3): -81.0459 | AMAX (SW480): -74.5488 | AMAX (VMRC-RCW): -71.6057
